Measured values as given in patent US7033829B2, “Method to inhibit cell growth using oligonucleotides” (Trustees of Boston University, priority 2000, dated 2006).
Oligonucleotides are written 5' to 3', each unit as a sugar letter and its base; * is a phosphorothioate linkage, no mark a phosphodiester; rarer units and linkages stand in square brackets, end groups in braces. Plain capitals give the bases only. d = 2'-deoxy (DNA); {P} = phosphate

Assays:
p95/Nbs1 = assay: Modification / phosphorylation of p95/Nbs1 (western blot); format: cell-based, human
Experimental: Cells were plated at a density of 180,000 cells/ml in RPMI 1640 medium supplemented with 3% FBS. Cells were treated with 40 μM of either of the oligonucleotides for 72 hours. Cells were then collected, washed and fixed for 30 minutes in 4% paraformaldehyde and then permeabilized with 0.1% Triton X-100 for 2 minutes. The TUNEL assay was carried out with components and instructions of the In Situ Cell Death Detection Kit using fluorescein-labeled dUTP from Boehringer Mannheim. TUNEL-positive cells were detected by FACS analysis and confocal microscopy. Cellular Uptake of Oligonucleotides For confocal analysis, Jurkat cells were plated on Permanox chamber slides (Lab-Tek, Naperville, Ill.) and treated for 4 hours with fluorescein phosphoramidite (FAM)-labeled oligonucleotides (Research Genetics, Inc., Huntsville, Ala.). […] Uptake of the oligonucleotides was assessed in 5–10 μm sections with a Carl Zeiss LSM 510 confocal laser microscope. […] Fluorescence was measured on the FL-1 channel. […] Antibody Ab-6 (DO-1 clone, Oncogene Research Products, Cambridge, Mass.) detected p53; antibody KH95 (Santa Cruz Biotechnology, Inc., Santa Cruz, Calif.) detected E2F1; antibody Ab-4 (Oncogene Research products) detected p73. Phospho-p53 (serine 15) was detected using the #9284 polyclonal antibody and phospho-p95/Nbs1 (serine 343) was detected by a phospho-p95/Nbs1-specific polyclonal antibody, both antibodies from Cell Signaling Technology (Beverly, Mass.). p95/Nbs1 antibody (#NB-100-143, Novus Biologicals, Littleton, Colo.) and an actin antibody (I-19, Santa Cruz Biotechnology, Santa Cruz, Calif.) were also used. […] After the indicated times, total protein was collected and analyzed by 8% PAGE and western blot using a polyclonal antibody to p95/Nbs1 (#NB-100-143, Novus Biologicals, Littleton, Colo.). […] Telomere length was determined essentially as described by van Steensel and de Lange (van Steensel, B. and T. de Lange. 1997, Nature 385: 740–743) using the Telo TAGGG Telomere Length Assay from Roche Molecular Biochemicals (Indianapolis, Ind.) and the protocol supplied by the manufacturer. […]

[1] = tested on: E2F1, p53, p53 phosphorylated at serine 15; assay: Western blot of E2F1, p53 and phospho-p53 in neonatal fibroblasts; format: cell-based, human
Experimental: Cells were plated at a density of 180,000 cells/ml in RPMI 1640 medium supplemented with 3% FBS. Cells were treated with 40 μM of either of the oligonucleotides for 72 hours. Cells were then collected, washed and fixed for 30 minutes in 4% paraformaldehyde and then permeabilized with 0.1% Triton X-100 for 2 minutes. The TUNEL assay was carried out with components and instructions of the In Situ Cell Death Detection Kit using fluorescein-labeled dUTP from Boehringer Mannheim. TUNEL-positive cells were detected by FACS analysis and confocal microscopy. Cellular Uptake of Oligonucleotides For confocal analysis, Jurkat cells were plated on Permanox chamber slides (Lab-Tek, Naperville, Ill.) and treated for 4 hours with fluorescein phosphoramidite (FAM)-labeled oligonucleotides (Research Genetics, Inc., Huntsville, Ala.). Adherent cells were fixed in 4% paraformaldehyde in PBS, stained with propidium iodide (PI) to identify nuclei, mounted with Slowfade reagent (Molecular Probes, Eugene, Oreg.), covered with a coverslip and stored at 4° C. in the dark. Uptake of the oligonucleotides was assessed in 5–10 μm sections with a Carl Zeiss LSM 510 confocal laser microscope. Computer images assign green to the FAM-oligonucleotides, red to PI, and yellow to co-localization of the signals. FACS analysis was performed on Jurkat cells identically treated with the FAM-oligonucleotides for 4 hours, then fixed in 0.5 ml of 4% paraformaldehyde overnight at 4° C. Fluorescence was measured on the FL-1 channel. Western Blot Analysis and Antibodies Western blot analysis was performed as previously described [Eller, M. S., et al., (1996), Proc Natl Acad Sci USA 93, 1087–1092]. Antibody Ab-6 (DO-1 clone, Oncogene Research Products, Cambridge, Mass.) detected p53; antibody KH95 (Santa Cruz Biotechnology, Inc., Santa Cruz, Calif.) detected E2F1; antibody Ab-4 (Oncogene Research products) detected p73. Phospho-p53 (serine 15) was detected using the #9284 polyclonal antibody and phospho-p95/Nbs1 (serine 343) was detected by a phospho-p95/Nbs1-specific polyclonal antibody, both antibodies from Cell Signaling Technology (Beverly, Mass.). p95/Nbs1 antibody (#NB-100-143, Novus Biologicals, Littleton, Colo.) and an actin antibody (I-19, Santa Cruz Biotechnology, Santa Cruz, Calif.) were also used. Modification of p95/Nbs1 Jurkat and SCC12F cells were cultured and treated with the oligonucleotides as described above. After the indicated times, total protein was collected and analyzed by 8% PAGE and western blot using a polyclonal antibody to p95/Nbs1 (#NB-100-143, Novus Biologicals, Littleton, Colo.). Immunoprecipitation and treatment with a serine/threonine phosphatase was performed as described by Lim et al. [Lim, D. S. et al., Nature 404:613–617, 2000]. Transient Transfection and Expression of TRF2^DN The Ad TRF2^DN expression vector was the kind gift of Dr. Titia deLange (Rockefeller University). The control vector, pCMV LUC was the gift of Dr. M. Hedayati, Johns Hopkins University. Cells were plated at a density of 3.5×10^3 cells/cm^2. One day later, the cultures were transfected with 1 μg plasmid DNA/35 mm culture dish, using the Fugene 6 Transfection Reagent (Roche Molecular Biochemicals, Indianapolis, Ind.), following the protocol supplied by the manufacturer. Cells were collected at the indicated times after transfection and p95/Nbs1 was examined by western blot as described. Telomere Length Normal human fibroblasts were cultured for 5 days in the presence of either diluent or 40 μM 11mer-1, -2 or -3. The cells were then collected and the genomic DNA isolated using the DNeasy Tissue Kit (Qiagen, Valencia, Calif.). Telomere length was determined essentially as described by van Steensel and de Lange (van Steensel, B. and T. de Lange. 1997, Nature 385: 740–743) using the Telo TAGGG Telomere Length Assay from Roche Molecular Biochemicals (Indianapolis, Ind.) and the protocol supplied by the manufacturer. […]

p53 = p53 (Homo sapiens, UniProt P04637); assay: p53 assay using hGH reporter plasmid in p53-transfected H1299 cells; format: cell-based; set-up: expressed in transfected cells; host or cells: H1299 lung carcinoma cells (p53-null); vector from Dr. Bert Vogelstein; conditions: 100 μM; 24 hours
Experimental: H1299 cells were similarly transfected with p53 expression vector or control vector. Two days after the transfection these cells were cotransfected with pPG-GH and PSV-β-galactosidase control vector, and treated with 100 μM pTpT. Twenty-four hours later, 250 μl of the medium and the cell lysate were harvested and processed as described above.

[2] = tested on: squamous carcinoma line SCC12F; assay: Cell yields of UVA-irradiated SCC12F cells after pretreatment; format: cell-based, human; conditions: 100 μM 3 days pretreatment; 10 J/cm^2 UVA
Experimental: Cells from the well differentiated squamous carcinoma line SCC12F (gift of Dr. James Rheinwald, Harvard University) were treated with 100 μM pTpT or diluent as control for 3 days. Then cells were re-plated in medium lacking pTpT and were sham- or UV-irradiated with 10 J/cm^2 UVA (Sellas Sunlight UVA lamp). Cell yields were determined at different intervals after UV irradiation.

IL-10 = IL-10 mRNA (RT-PCR) and protein (ELISA) in keratinocytes; format: cell-based, human
Experimental: The immunomodulatory effect of pTpT was tested in vitro using human keratinocytes. Duplicate cultures of primary human keratinocytes were treated with pTpT, diluent or UVB irradiation (200 J/m^2) or sham irradiation. Cells were collected at various times after treatment and analyzed for IL-10 protein by ELISA and for IL-10 mRNA by RT-PCR. An increase in IL-10 mRNA was detected after 6 hours in irradiated cells and after 48 hours in pTpT treated cells. An increase in IL-10 protein of 18 pg/ml was detected 24 hours after irradiation and 15±2 pg/ml 72 hours after treatment with pTpT. […] In the allogenic MLR, T cell activation is measured as lymphocyte proliferation, measured by ^3H-thymidine incorporation. IL-10 activity of culture medium from the 72 hour pTpT sample was measured by addition of the >10 kD components (containing the 18 kD IL-10 protein). […] Thus, like UVB irradiation, pTpT induces IL-10 in human keratinocytes which is likely to cooperate with TNFα to inhibit contact hypersensitivity in pTpT treated skin.

p53, sequence (P04637 whole entry): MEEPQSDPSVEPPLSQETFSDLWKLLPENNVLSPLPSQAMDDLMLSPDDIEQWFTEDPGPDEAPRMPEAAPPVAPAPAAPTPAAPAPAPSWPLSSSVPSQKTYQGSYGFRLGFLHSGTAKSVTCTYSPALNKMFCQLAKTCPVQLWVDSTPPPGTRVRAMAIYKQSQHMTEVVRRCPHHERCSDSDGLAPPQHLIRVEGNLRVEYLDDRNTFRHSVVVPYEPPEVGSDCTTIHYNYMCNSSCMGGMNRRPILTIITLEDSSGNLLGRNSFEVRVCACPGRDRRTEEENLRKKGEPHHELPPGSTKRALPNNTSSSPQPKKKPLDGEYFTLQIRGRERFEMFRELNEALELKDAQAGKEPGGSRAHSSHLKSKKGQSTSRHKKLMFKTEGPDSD

Substance	shift in p95/Nbs1 migration (p95/Nbs1; Jurkat cells, 48, 72 and 96 hours)	shift in p95/Nbs1 migration (p95/Nbs1; SCC12F cells)	phosphorylation of p95/Nbs1 (phospho-specific antibody) (p95/Nbs1; fibroblasts)	E2F1 increase peaked after [1]	increase in E2F1 seen as early as [1]	phosphorylated p53 (serine 15) first detected at [1]	increase in E2F1 compared to diluent or 11mer-2 treated controls ([1]; 40 μM, 24 hours, densitometry)	increase in p53 compared to diluent or 11mer-2 treated controls ([1]; 40 μM, 48 hours)	increase in p53 compared to diluent or 11mer-2 treated controls ([1]; 40 μM, 72 hours)	p53 protein phosphorylated at serine 15 ([1]; sustained through at least 48 hours)	increase in hGH secretion compared to diluent-treated cells (p53)	yields of UVA irradiated cells [2]	increase in IL-10 protein (IL-10; 72 hours after treatment)	time after which an increase in IL-10 mRNA was detected (IL-10; primary human keratinocytes)
pGTTAGGGTTAG (DNA {P}-dGdTdTdAdGdGdGdTdTdAdG) [SEQ ID NO: 5]	detects such a shift in p95/Nbs1 migration	respond identically	phosphorylation of p95/Nbs1 is induced	12 to 24 h	4 h	4 h	170–250%	60–300%	240–380%	striking and selective increase	–	–	–	–
thymidine dinucleotide [pTpT]	–	–	–	–	–	–	–	–	–	–	40%	increased the yields of UVA irradiated cells	15 ± 2 pg/mL	48 h
